{
  "source": "patent US20050002868A1",
  "about": "“Method of treatment of a female suffering from androgen insufficiency” (Acrux DDS Pty Ltd., priority 2003, published 2005)",
  "assay": "Open label, randomised two-way cross-over pharmacokinetic study of free serum testosterone after daily transdermal spray for 5 days",
  "assay_type": "in vivo, women",
  "experimental": "The study was a single centre, open label pharmacokinetic study, with a randomised, two-way, cross-over design. The two treatment periods were 5 days with an eight day washout between treatments. Intensive blood sampling was performed on day 5 of each treatment period for pharmacokinetic analysis. The treatments consisted of daily application of 2×91 μL sprays for 5 days, either applied to the abdomen or forearm. Free serum testosterone concentration profiles were measured over 24 hours after daily administration of transdermal testosterone for 5 days to 6 healthy surgically menopausal women stabilized on oral oestrogen therapy. HPLC separation (followed by RIA) and equilibrium dialysis were used to measure free testosterone (Esoterix Inc.).",
  "data": [
    {"smiles": "C[C@]12CC[C@H]3[C@@H](CCC4=CC(=O)CC[C@@]43C)[C@@H]1CC[C@@H]2O", "note": "[testosterone]", "values": [
      {"measurement": "average serum concentrations of free testosterone, forearm compared with abdomen", "setting": "application to the forearm, day 5, FIG. 1", "result": "significantly higher"},
      {"measurement": "Steady-state concentrations of free testosterone", "setting": "daily application for 5 days, abdomen or forearm", "result": "attained on day 5"},
      {"measurement": "variation of free testosterone serum concentrations, abdomen compared with forearm", "setting": "dose application to the abdomen, day 5, FIG. 1", "result": "considerably less variation"}
    ]}
  ]
}
